{"source": "patent US8946201B2", "about": "“Methods for inhibiting TGF-β” (Saint Louis University, priority 2007, dated 2015)", "key": {"pig burn wounds": {"tested_on": "pig burn wounds", "experiment": "Pig skin burn injury model: wound healing and scar", "type": "in vivo", "conditions": "topical; for wound closure / open wound: post-burn day 38", "experimental": "FIG. 6. Wound closure and scar formation in pig burn wounds treated with cholesterol (CHO). Burn wounds treated with 0.025% cholesterol (A,B) and 0.00625% cholesterol (E,F) and vehicle only (C,D) were photographed immediately after burn injury (A,C,E) and at postburn day 38 (B,D,F). After burn injury, necrosis was present (white) (A,C,E).\nFour pigs weighing 20-25 kg were anesthetized by intramuscular injection of ketamine (5 mg/kg), strenil (cazaporonum) (20 mg/kg) and atropine ([…]). Six uniform burn wounds (110° C., 30 sec) were then made symmetrically on the back of each pig using a modified soldering iron with a flat contact area of ˜20 cm^2. […] After wounding, IntraSite gels containing TGF-β antagonist and buffer vehicle (as control) were applied to the pig burn wounds. The burn wound received no topical gel treatment was also used as the other control. All wounds were dressed with paraffin gauze. TGF-β antagonist gel and control gel were applied to the wounds every two days for the first 10 days and twice a week for the next 30 days. All wounds were cleaned and measured prior to each application of the IntraSite gel.\nWound healing was assessed by evaluating the rates of wound re-epithelialization and contraction. The open wound area and the area enclosed by the normal hair bearing skin were measured using the macrophotography technique. The healing rate was monitored every two days for the first 10 days and twice a week for 30 more days. Wound re-epithelialization or contraction as a percent of the original wound size was calculated as described previously.\nThe volumes of scar were estimated by multiplying their thickness by the size of the scar on post-burn day 41 in pigs and on post-excision day 10 in rabbits.\nThese include: 1) Cholesterol treatment of cells suppresses TGF-β-induced cellular responsiveness including TGF-β induced Smad2 phosphorylation and nuclear translocation and TGF-β-induced expression of plasminogen activator inhibitor-1 (PAI-1). PAI-1 gene expression has commonly been used as an indicator of TGF-β-induced cellular responsiveness and PAI-1 is involved in inhibiting degradation of ECM proteins. And 2) Cholesterol treatment reverses TGF-β-induced growth inhibition in Mv1Lu cells. Since TGF-β negatively regulates normal wound healing and mediates skin fibrosis and scarring, we decided to test the effect of cholesterol on wound healing and scar formation in a pig skin burn injury model. Six thermal burns (110° C., 30 sec.; ˜20 cm^2, three on each side) were created on the back on each pig (20 kg, female). After wounding, two lesions were treated with a thin-layer of gel containing 0.025% cholesterol; two received gel containing 0.006% cholesterol and two received gel containing vehicle only. Cholesterol and cholesterol gels were applied every 2 days for the first 10 days and twice a week for the nest 30 days at which time re-epithelialization was measured and photographed. […] The volumes of the scar tissue in wound treated with 0.025% and 0.00625% cholesterol were 0.01 and 0.20±0.04 cm^3, respectively. The volume of the scar tissue in wounds treated with vehicle only was 0.45±0.03 cm^3."}, "hair growth": {"tested_on": "hair growth", "experiment": "Hair growth assay in mice", "type": "in vivo, mice (C57BL/6)", "conditions": "lotion containing 0.025% cholesterol, topical every two days", "experimental": "FIG. 7. Hair growth promotion in mice topically treated with cholesterol. Mice (female, 6 weeks old) were subjected to hair removal by using hair remover lotion Nair®. The areas after hair removal were treated with the lotion containing vehicle only or 0.025% cholesterol on the first day and every other two days. Photographs were taken immediately after hair removal and prior to topical application with vehicle (a,b,c) or lotion containing cholesterol (d,e,f). Photographs were taken at days 0 (a,d), 10 (b,e) and 18 (c,f). The dark color indicates an early stage of hair growth.\nHair at the back of female mice (C57BL/6, 6-8 weeks old, were removed by using Nair® lotion hair remover. Lotions containing 0.025 and 0.00625% cholesterol and vehicle only were topically applied onto the area where the hair was removed. On the first day and every other day, photographs were taken prior to administration of the lotions. On day 18, the re-grown hair was shaved and weighed.\nThe hair growth cycle is coordinated with complex processes that are dependent on the interactions of epithelial and dermal components (follicle keratinocytes and dermal papilla cells). The hair growth cycle includes two major phases, growing phase (anagen) and regression phase (catagen). The length and size of hair are dependent on the anagen term in the hair cycle. […]"}}, "note": "Entries after “also recorded” stand apart in the source; their conditions may differ.", "data": [{"smiles": "CC(C)CCC[C@@H](C)[C@H]1CC[C@H]2[C@@H]3CC=C4C[C@@H](O)CC[C@]4(C)[C@H]3CC[C@]12C", "note": "[cholesterol]", "values": [{"measurement": "volume of the scar tissue", "setting": "pig burn wounds; 0.00625% cholesterol gel", "result": "0.20±0.04", "unit": "cm^3"}, {"measurement": "wound closure / open wound", "setting": "pig burn wounds; 0.00625% cholesterol gel", "result": "no and almost complete"}, {"measurement": "surface of wounds", "setting": "pig burn wounds; 0.025% cholesterol gel", "result": "very smooth without apparent scar"}, {"measurement": "volume of the scar tissue", "setting": "pig burn wounds; 0.025% cholesterol gel", "result": 0.01, "unit": "cm^3"}, {"measurement": "wound closure / open wound", "setting": "pig burn wounds; 0.025% cholesterol gel", "result": "very little open wound; also recorded: complete"}, {"measurement": "hair growth", "setting": "hair growth; day 10", "result": "the hair started to grow"}, {"measurement": "hair growth", "setting": "hair growth; day 18", "result": "fully grown hair"}]}]}
